Test system: K-562 leukemia growth, % test/control
Assay: Anticancer human tumor K-562 cell line growth inhibition;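 for viability, T/C: 100% = DMSO vehicle wells and lower values mean fewer viable cells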
Conditions: spheroids with HUVEC and MSC; for IC50: curve of first compound; for viability, T/C: stronger effect = lower value
Method in brief: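 Complex spheroids of tumor cells with HUVEC and human MSCs, exposed to iadademstat combined with other agents. Each agent tested in half-log steps from near clinical Cmax (else 10 microM top), DMSO ≤0.25%.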

[1] = second compound 0.1 µM, first compound 0.000316 µM
[2] = second compound 0.1 µM, first compound 0.001 µM
[3] = second compound 0.1 µM, first compound 0.00316 µM
[4] = second compound 0.1 µM, first compound 0.01 µM
[5] = second compound 0.1 µM, first compound 0.0316 µM
[6] = second compound 0.1 µM, first compound 0.1 µM
[7] = second compound 0.316 µM, first compound 0.000316 µM
[8] = second compound 0.316 µM, first compound 0.001 µM
[9] = second compound 0.316 µM, first compound 0.00316 µM
[10] = second compound 0.316 µM, first compound 0.01 µM
[11] = second compound 0.316 µM, first compound 0.0316 µM
[12] = second compound 0.316 µM, first compound 0.1 µM
[13] = second compound 1 µM, first compound 0.000316 µM
[14] = second compound 1 µM, first compound 0.001 µM
[15] = second compound 1 µM, first compound 0.00316 µM
[16] = second compound 1 µM, first compound 0.01 µM
[17] = second compound 1 µM, first compound 0.0316 µM
[18] = second compound 1 µM, first compound 0.1 µM
[19] = second compound 3.16 µM, first compound 0.000316 µM
[20] = second compound 3.16 µM, first compound 0.001 µM
[21] = second compound 3.16 µM, first compound 0.00316 µM
[22] = second compound 3.16 µM, first compound 0.01 µM
[23] = second compound 3.16 µM, first compound 0.0316 µM
[24] = second compound 3.16 µM, first compound 0.1 µM
[25] = second compound 10 µM, first compound 0.000316 µM
[26] = second compound 10 µM, first compound 0.001 µM
[27] = second compound 10 µM, first compound 0.00316 µM
[28] = second compound 10 µM, first compound 0.01 µM
[29] = second compound 10 µM, first compound 0.0316 µM
[30] = second compound 10 µM, first compound 0.1 µM

Structure (SMILES): CC(C)CC(NC(=O)C(Cc1ccccc1)NC(=O)c1cnccn1)B(O)O (stereo not given) + NC1CC1c1ccc(-c2cccc(O)c2)cc1
- IC50 (second compound 0.1 µM): 0.585 nM
- IC50 (second compound 0.316 µM): 0.588 nM
- IC50 (second compound 1 µM): 0.601 nM
- IC50 (second compound 3.16 µM): 0.576 nM
- IC50 (second compound 10 µM): 0.525 nM
- viability, T/C [1]: 103%
- viability, T/C [2]: 3.66%
- viability, T/C [3]: 0.7%
- viability, T/C [4]: 0.61%
- viability, T/C [5]: 0.46%
- viability, T/C [6]: 0.42%
- viability, T/C [7]: 105%
- viability, T/C [8]: 3.12%
- viability, T/C [9]: 0.63%
- viability, T/C [10]: 0.53%
- viability, T/C [11]: 0.48%
- viability, T/C [12]: 0.47%
- viability, T/C [13]: 109%
- viability, T/C [14]: 3.33%
- viability, T/C [15]: 0.63%
- viability, T/C [16]: 0.53%
- viability, T/C [17]: 0.39%
- viability, T/C [18]: 0.56%
- viability, T/C [19]: 102%
- viability, T/C [20]: 2.37%
- viability, T/C [21]: 0.61%
- viability, T/C [22]: 0.46%
- viability, T/C [23]: 0.43%
- viability, T/C [24]: 0.44%
- viability, T/C [25]: 87.7%
- viability, T/C [26]: 2.01%
- viability, T/C [27]: 0.5%
- viability, T/C [28]: 0.46%
- viability, T/C [29]: 0.43%
- viability, T/C [30]: 0.39%

Structure (SMILES): CC(C)CC(NC(=O)CNC(=O)c1cc(Cl)ccc1Cl)B1OC(=O)CC(CC(=O)O)(C(=O)O)O1 (stereo not given) + NC1CC1c1ccc(-c2cccc(O)c2)cc1
- IC50 (second compound 0.1 µM): 14.2 nM
- IC50 (second compound 0.316 µM): 12.7 nM
- IC50 (second compound 1 µM): 9.67 nM
- IC50 (second compound 3.16 µM): 7.83 nM
- IC50 (second compound 10 µM): 6.56 nM
- viability, T/C [1]: 110%
- viability, T/C [2]: 105%
- viability, T/C [3]: 107%
- viability, T/C [4]: 66.6%
- viability, T/C [5]: 11.4%
- viability, T/C [6]: 2.83%
- viability, T/C [7]: 107%
- viability, T/C [8]: 99.7%
- viability, T/C [9]: 102%
- viability, T/C [10]: 60%
- viability, T/C [11]: 10.7%
- viability, T/C [12]: 2.8%
- viability, T/C [13]: 103%
- viability, T/C [14]: 96.1%
- viability, T/C [15]: 102%
- viability, T/C [16]: 48.4%
- viability, T/C [17]: 9.51%
- viability, T/C [18]: 2.55%
- viability, T/C [19]: 101%
- viability, T/C [20]: 96.6%
- viability, T/C [21]: 101%
- viability, T/C [22]: 36.7%
- viability, T/C [23]: 9.01%
- viability, T/C [24]: 2.3%
- viability, T/C [25]: 95.5%
- viability, T/C [26]: 96.8%
- viability, T/C [27]: 97.2%
- viability, T/C [28]: 23.1%
- viability, T/C [29]: 5.77%
- viability, T/C [30]: 1.88%

Structure (SMILES): O=C(C=Cc1cccc(S(=O)(=O)Nc2ccccc2)c1)NO + NC1CC1c1ccc(-c2cccc(O)c2)cc1
- IC50 (second compound 0.1 µM): 240 nM
- IC50 (second compound 0.316 µM): 227 nM
- IC50 (second compound 1 µM): 221 nM
- IC50 (second compound 3.16 µM): 212 nM
- IC50 (second compound 10 µM): 140 nM
- viability, T/C (second compound 0.1 µM, first compound 0.00949 µM): 106%
- viability, T/C (second compound 0.1 µM, first compound 0.03 µM): 103%
- viability, T/C (second compound 0.1 µM, first compound 0.0949 µM): 102%
- viability, T/C (second compound 0.1 µM, first compound 0.3 µM): 5.9%
- viability, T/C (second compound 0.1 µM, first compound 0.949 µM): 2.2%
- viability, T/C (second compound 0.1 µM, first compound 3 µM): 104%
- viability, T/C (second compound 0.316 µM, first compound 0.00949 µM): 102%
- viability, T/C (second compound 0.316 µM, first compound 0.03 µM): 105%
- viability, T/C (second compound 0.316 µM, first compound 0.0949 µM): 96.9%
- viability, T/C (second compound 0.316 µM, first compound 0.3 µM): 4.4%
- viability, T/C (second compound 0.316 µM, first compound 0.949 µM): 1.16%
- viability, T/C (second compound 0.316 µM, first compound 3 µM): 99.1%
- viability, T/C (second compound 1 µM, first compound 0.00949 µM): 100%
- viability, T/C (second compound 1 µM, first compound 0.03 µM): 102%
- viability, T/C (second compound 1 µM, first compound 0.0949 µM): 95.6%
- viability, T/C (second compound 1 µM, first compound 0.3 µM): 3.61%
- viability, T/C (second compound 1 µM, first compound 0.949 µM): 0.8%
- viability, T/C (second compound 1 µM, first compound 3 µM): 96.4%
- viability, T/C (second compound 3.16 µM, first compound 0.00949 µM): 98.5%
- viability, T/C (second compound 3.16 µM, first compound 0.03 µM): 101%
- viability, T/C (second compound 3.16 µM, first compound 0.0949 µM): 89.8%
- viability, T/C (second compound 3.16 µM, first compound 0.3 µM): 2.99%
- viability, T/C (second compound 3.16 µM, first compound 0.949 µM): 1.26%
- viability, T/C (second compound 3.16 µM, first compound 3 µM): 94.5%
- viability, T/C (second compound 10 µM, first compound 0.00949 µM): 84.5%
- viability, T/C (second compound 10 µM, first compound 0.03 µM): 82%
- viability, T/C (second compound 10 µM, first compound 0.0949 µM): 59.1%
- viability, T/C (second compound 10 µM, first compound 0.3 µM): 2.72%
- viability, T/C (second compound 10 µM, first compound 0.949 µM): 0.89%
- viability, T/C (second compound 10 µM, first compound 3 µM): 93.5%

Reference: PubChem BioAssay AID1918948 (Molecular Pharmacology Branch, DTP, NCI, 2023)
